In patent US20250179028A1, “ACRYLAMIDE COMPOUNDS” (NRG THERAPEUTICS LTD, priority 2022, published 2025):
Converted amounts (≈) assume the structure as drawn. Read-outs that look alike come from different tables or passages of the source. Marks after values point to notes of the source that are not given here.

Assays:
mPTP = mPTP activity (Ca2+ retention) assay in isolated rat liver mitochondria; assay type: biochemical; conditions: isolated rat liver mitochondria
How it was run: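 Freshly isolated female Sprague Dawley rat liver mitochondria were energised with succinate and rotenone in pH 7.4 buffer with Fluo5N, then pre-incubated 10 min at RT with compound (30 μM to 1 nM final) before a 75 μM CaCl2 bolus. The IC50 used 10-min fluorescence, normalised to DMSO and 5 μM cyclosporin A.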

[1] = PBS and FaSSIF solubility; assay type: physicochemical; conditions: kinetic from dmso stock
How it was run: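 Solubility was measured from 10 mM DMSO stocks diluted into FaSSIF or PBS pH 7.4, in duplicate, then shaken at 1100 rpm for 2 hr at 25 °C. Filtrates were quantified by LC-MS/MS against an internal standard and a known-concentration standard.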

[2] = Hepatocyte clearance assay, human; assay type: in vitro ADME; conditions: cryopreserved primary human hepatocytes, average value from two experiments, read-out: Human heps Clint
How it was run: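 Cryopreserved rat or human hepatocytes, 0.5×10^6 viable cells/mL in L-15 medium, incubated with compound at 37 °C; samples to 120 min, duplicate. Parent loss by LC/MS/MS; t½ = 0.693/k from ln-linear regression, converted to CLint in μL/min/1×10^6 cells.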

[3] = average value from multiple experiments (n ≥ 2)
[4] = aqueous buffer, PBS pH 7.4, 2 hr at 25° C., read-out: Solubility PBS (pH 7.4)
[5] = fasted state simulated intestinal fluid (FaSSIF), fassif, Fasted state simulated intestinal fluid, 2 hr at 25° C., read-out: Solubility FaSSIF

| mPTP Rat liver pIC50 (mPTP; [3]) | solubility at 2 h [1, 4] [µM] | solubility at 2 h [1, 5] [µM] | hepatocyte CLint at 1 µM [2] [µL/min/1e6 cells] | mPTP Rat liver pIC50 (mPTP; average value from a larger number of experiments) | Structure (SMILES) |
| --- | --- | --- | --- | --- | --- |
| 5.9 | 33.6 (≈ 10.9 µg/mL) | 220 (≈ 71.3 µg/mL) |  |  | Cc1c(F)cccc1NC(=O)/C=C/c1ccc2c(c1)NC(=O)C2C (stereo not shown) [Example 8, (E)-N-(3-fluoro-2-methylphenyl)-3-(3-methyl-2-oxoindolin-6-yl)acrylamide] |
| 5.9 | 0.5 (≈ 0.164 µg/mL) |  | 4.78 |  | Cc1c(F)cccc1NC(=O)/C(F)=C/c1ccc2c(c1)NC(=O)C2 [Example 47, (Z)-2-fluoro-N-(3-fluoro-2-methylphenyl)-3-(2-oxoindolin-6-yl)acrylamide] |
| 6.7 | 4.7 (≈ 1.46 µg/mL) | 74 (≈ 23 µg/mL) | 3.3 |  | Cc1c(F)cccc1NC(=O)/C=C/c1ccc2c(c1)NC(=O)C2 [Example 10, (E)-N-(3-fluoro-2-methylphenyl)-3-(2-oxoindolin-6-yl)acrylamide] |
| 6.6 | 0.4 (≈ 0.136 µg/mL) |  | 16.2 |  | CCn1c(=O)[nH]c2cc(/C=C/C(=O)Nc3cccc(F)c3C)ccc21 [Example 22, (E)-3-(1-ethyl-2-oxo-2,3-dihydro-1H-benzo[d]imidazol-5-yl)-N-(3-fluoro-2-methylphenyl)acrylamide] |
| 6.8 | 3.71 (≈ 1.16 µg/mL) | 16 (≈ 5 µg/mL) | < 3 |  | Cc1c(F)cccc1NC(=O)/C=C/c1ccc2oc(=O)[nH]c2c1 [Example 6, (E)-N-(3-fluoro-2-methylphenyl)-3-(2-oxo-2,3-dihydrobenzo[d]oxazol-5-yl)acrylamide] |

Second part, the compound before the results:

| Structure (SMILES) | mPTP Rat liver pIC50 (mPTP; [3]) | solubility at 2 h [1, 4] [µM] | solubility at 2 h [1, 5] [µM] | hepatocyte CLint at 1 µM [2] [µL/min/1e6 cells] | mPTP Rat liver pIC50 (mPTP; average value from a larger number of experiments) |
| --- | --- | --- | --- | --- | --- |
| Cc1c(F)cccc1NC(=O)/C=C/c1ccc2c(c1)[nH]c(=O)n2C [Example 7, (E)-N-(3-fluoro-2-methylphenyl)-3-(1-methyl-2-oxo-2,3-dihydro-1H-benzo[d]imidazol-5-yl)acrylamide] | 6.8 | 1.4 (≈ 0.455 µg/mL) | 22.5 (≈ 7.32 µg/mL) | 7.63 |  |
| Cc1c(F)cccc1NC(=O)/C=C/c1ccc2c(c1F)NC(=O)C2 [Example 5, (E)-N-(3-fluoro-2-methylphenyl)-3-(7-fluoro-2-oxoindolin-6-yl)acrylamide] | 6.7 | 6.78 (≈ 2.23 µg/mL) | 66 (≈ 21.7 µg/mL) |  |  |
| Cc1c(F)cccc1NC(=O)/C=C/c1ccc2c(c1)[nH]c(=O)n2C1CC1 [Example 23, (E)-3-(1-cyclopropyl-2-oxo-2,3-dihydro-1H-benzo[d]imidazol-5-yl)-N-(3-fluoro-2-methylphenyl)acrylamide] | 6.6 | 6.13 (≈ 2.15 µg/mL) |  | 17.4 |  |
| CO[C@H]1Cc2ccccc2[C@@H]1NC(=O)/C=C/c1ccc2c(F)n[nH]c2c1 [Example 73, (E)-3-(3-fluoro-1H-indazol-6-yl)-N-((1S,2S)-2-methoxy-2,3-dihydro-1H-Inden-1-yl)acrylamide] | 8.1 |  | 37.5 (≈ 13.2 µg/mL) | 7.7 |  |
| CO[C@H]1Cc2ccccc2[C@@H]1NC(=O)/C=C/c1ccc2c(C)n[nH]c2c1 [Example 54, (E)-N-((1S,2S)-2-methoxy-2,3-dihydro-1H-inden-1-yl)-3-(3-methyl-1H-indazol-6-yl)acrylamide] | 7.6 |  | 22 (≈ 7.63 µg/mL) | 10.8 |  |
| Cc1c(F)cccc1NC(=O)/C=C/c1ccc2cn[nH]c2c1 [Comparative Example 1, (E)-N-(2-methyl-3-fluorophenyl)-3-(1H-indazol-6-yl)acrylamide, reference compound] | 8.0 | 0.9 (≈ 0.266 µg/mL) | 4 (≈ 1.18 µg/mL) | 13 | 7.8*** |
| Cc1n[nH]c2cc(/C=C/C(=O)NC3CCc4ccccc43)ccc12 (stereo not shown) [Example 25, (E)-N-(2,3-dihydro-1H-inden-1-yl)-3-(3-methyl-1H-indazol-6-yl)acrylamide] | 6.9 | 3.69 (≈ 1.17 µg/mL) |  | 21.8 |  |
| Cc1ccc(F)c(C)c1NC(=O)/C=C/c1ccc2c(c1)[nH]c(=O)n2C [Example 30, (E)-N-(3-fluoro-2,6-dimethylphenyl)-3-(1-methyl-2-oxo-2,3-dihydro-1H-benzo[d]imidazol-5-yl)acrylamide] | 7.4 | 5.73 (≈ 1.94 µg/mL) | 135 (≈ 46 µg/mL) | 18.1 |  |
| Cc1cccc(C)c1NC(=O)/C=C/c1ccc2c(c1)NC(=O)C2 [Example 19, (E)-N-(2,6-dimethylphenyl)-3-(2-oxoindolin-6-yl)acrylamide] | 6.2 | 134 (≈ 41.1 µg/mL) | 196 (≈ 60.2 µg/mL) | 4.02 |  |
